Reference: ChEMBL document CHEMBL4219187, “A new target for Alzheimer's disease: A small molecule SERCA activator is neuroprotective in vitro and improves memory and cognition in APP/PS1 mice” (Bioorg Med Chem Lett, 2018)
Activity calls are given as the source filed them. No cut-off for these calls is given here.

Columns and labels:
Mus musculus [1] = assay: Toxicity in mouse at 50 mg/kg, po; format: organism-based; conditions: in vivo
Mus musculus [2] = assay: Cognition enhancement activity in APPSWE/PSEN1dE9 double-transgenic mouse model of Alzheimer's disease assessed as decrease in total swim distance for hidden platform at 10 mg/kg, ip administered daily for 5 days per week for 4 weeks by Morris water maze test; format: functional, organism-based
Rattus norvegicus = organism: Rattus norvegicus; assay: Cytoprotection against thapsigargin induced cell death in rat CSM14.1 cells assessed as increase in cell viability preincubated for 2 hrs followed by thapsigargin induction measured after 20 hrs by ATPlite assay; format: functional, cell-based
[3] = Half life in mouse microsomes; format: ADME, Microsome
[4] = Cytotoxicity against rat CSM14.1 cells assessed as cell viability after 20 hrs by ATPlite assay relative to control; format: cell-based; conditions: read-out: Activity
[5] = Half life in human plasma; format: ADME, cell-free
[6] = Half life in mouse hepatocytes; format: ADME, cell-based, Hepatocyte
[7] = target: Voltage-gated inwardly rectifying potassium channel KCNH2 (Homo sapiens, UniProt Q12809); assay: Inhibition of human ERG up to 10 uM
Sequence of Voltage-gated inwardly rectifying potassium channel KCNH2 (Q12809 whole entry): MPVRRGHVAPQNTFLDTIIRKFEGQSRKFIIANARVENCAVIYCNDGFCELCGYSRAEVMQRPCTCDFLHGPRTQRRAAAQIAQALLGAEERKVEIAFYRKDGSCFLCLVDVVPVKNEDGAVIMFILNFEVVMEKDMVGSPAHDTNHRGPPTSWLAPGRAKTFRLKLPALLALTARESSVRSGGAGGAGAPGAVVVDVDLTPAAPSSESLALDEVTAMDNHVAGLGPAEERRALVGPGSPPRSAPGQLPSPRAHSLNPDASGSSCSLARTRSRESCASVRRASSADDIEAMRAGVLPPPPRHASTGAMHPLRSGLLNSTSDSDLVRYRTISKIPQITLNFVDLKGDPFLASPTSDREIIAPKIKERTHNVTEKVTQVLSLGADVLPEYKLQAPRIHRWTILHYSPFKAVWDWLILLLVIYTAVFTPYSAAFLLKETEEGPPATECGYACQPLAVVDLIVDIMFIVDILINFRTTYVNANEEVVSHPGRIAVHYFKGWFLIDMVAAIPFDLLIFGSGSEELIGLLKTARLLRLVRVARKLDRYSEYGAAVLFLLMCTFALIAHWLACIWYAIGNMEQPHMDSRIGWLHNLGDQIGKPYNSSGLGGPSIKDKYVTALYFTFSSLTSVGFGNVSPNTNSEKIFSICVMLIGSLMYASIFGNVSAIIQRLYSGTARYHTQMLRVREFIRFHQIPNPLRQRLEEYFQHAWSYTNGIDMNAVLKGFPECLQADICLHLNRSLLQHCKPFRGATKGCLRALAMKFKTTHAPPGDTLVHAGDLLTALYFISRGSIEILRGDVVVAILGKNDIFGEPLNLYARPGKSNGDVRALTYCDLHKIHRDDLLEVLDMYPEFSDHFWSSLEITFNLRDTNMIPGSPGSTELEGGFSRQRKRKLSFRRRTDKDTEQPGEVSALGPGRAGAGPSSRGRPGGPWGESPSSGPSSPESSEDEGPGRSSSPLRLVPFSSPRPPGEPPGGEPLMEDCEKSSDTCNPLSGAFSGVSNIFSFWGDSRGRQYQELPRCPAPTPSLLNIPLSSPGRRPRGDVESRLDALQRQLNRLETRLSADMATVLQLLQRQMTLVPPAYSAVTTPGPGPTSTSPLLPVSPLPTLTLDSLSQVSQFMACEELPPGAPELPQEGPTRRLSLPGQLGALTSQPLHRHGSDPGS

Mus musculus [8] = assay: Antidepressant activity in APPSWE/PSEN1dE9 double-transgenic mouse model of Alzheimer's disease assessed as reduction in immobility time at 10 mg/kg, ip administered daily for 5 days per week for 4 weeks by tail suspension test; format: functional, organism-based
[9] = Half life in human hepatocytes; format: ADME, cell-based, Hepatocyte
[10] = Half life in mouse plasma; format: ADME, cell-free
[11] = Oral bioavailability in mouse at 50 mg/kg; format: ADME, organism-based; conditions: in vivo
[12] = Ratio of drug level in brain to plasma in mouse measured at 1 hr post dose; format: ADME, cell-free; conditions: brain and plasma, read-out: BPR
[13] = Clearance in mouse at 2 mg/kg, po; format: ADME, organism-based; conditions: in vivo
HeLa = assay: Activation of SERCA in human HeLa cells assessed as protection against thapsigargin induced depletion of ER calcium stores at 10 uM up to 150 secs by cameleon plasmid-based fluorescence assay; format: cell-based
[14] = Inhibition of CYP450 (unknown origin) up to 5 uM; format: ADME; conditions: human
Mus musculus [15] = assay: Antialzheimer activity in APPSWE/PSEN1dE9 double-transgenic mouse model of Alzheimer's disease assessed as decrease in impairment of motor coordination at 10 mg/kg, ip administered daily for 5 days per week for 4 weeks by rotarod test; format: functional, organism-based
[16] = Half life in human microsomes; format: ADME, Microsome

- half-life [3]: 2 min
- half-life [5]: > 300 min
- half-life [6]: 2 min
- half-life [9]: 45 min
- half-life [10]: 140 min
- bioavailability [11]: 37%
- Kp at 1 h [12]: 3
- CL/F [13]: 251 mL/min/kg
- inhibition (INH) [14]: Not Active
- half-life [16]: 15 min
SMILES: Cc1ccc2cccc(NC(=O)c3ccc(OC(C)C)cc3)c2n1
- Activity (Mus musculus [1]): Non-Toxic
- Activity (Mus musculus [2]): Active
- Activity (Rattus norvegicus): Dose-dependent effect
- viability at 20 h [4]: 100%
- inhibition (INH) [7]: Active
- Activity (Mus musculus [8]): Active
- Activity (HeLa): Active
- Activity (Mus musculus [15]): Active
